Laboratory results: ChEMBL document CHEMBL5257089, “Gamabufotalin Induces Apoptosis and Cytoprotective Autophagy through the mTOR Signaling Pathway in Hepatocellular Carcinoma” (J Nat Prod, 2023)
Active and inactive are the calls of the source. No cut-off for these calls is given here.

Tests used:
Hep 3B2 [1] = assay: Induction of autophagic flux in human Hep3B cells assessed as increase in number of autophagic vesicles at 10 nM by transmission electron microscopic analysis; assay type: functional, cell-based
Hep 3B2 [2] = assay: Induction of apoptosis in human Hep3B cells assessed as early apoptotic cells at 10 nM incubated for 48 hrs in presence of gamabufotalin by Annexin V-FITC/PI staining based flow cytometry method (reference value: 1.3%); assay type: functional
Huh-7 [3] = assay: Induction of apoptosis in human Huh-7 cells assessed as early apoptotic cells at 10 nM incubated for 48 hrs in presence of gamabufotalin by Annexin V-FITC/PI staining based flow cytometry method (reference value: 2.8%); assay type: functional
Huh-7 [4] = assay: Induction of apoptosis in human Huh-7 cells assessed as increase in bax level at 10 nM incubated for 48 hrs in presence of gamabufotalin by immunoblot analysis; assay type: functional, cell-based
Hep 3B2 [5] = assay: Induction of autophagy in human Hep3B cells assessed as rescue of ULK1 phosphorylation level at upto 10 nM incubated for 48 hrs in presence of gamabufotalin by immunoblot method; assay type: functional, cell-based
Hep 3B2 [6] = assay: Induction of apoptosis in human Hep3B cells assessed as increase in cleaved bax level at 25 nM incubated for 48 hrs in presence of chloroquine by immunoblot analysis; assay type: functional, cell-based
Huh-7 [7] = assay: Induction of apoptosis in human Huh-7 cells assessed as increase in cleaved PARP expression at upto 25 nM incubated for 48 hrs by Western blot analysis; assay type: functional, cell-based
Hep 3B2 [8] = assay: Induction of apoptosis in human Hep3B cells assessed as necrotic cells at 25 nM measured after 48 hrs in presence of Z-VAD-FMK by annexin V-FITC/Propidium iodide staining based flow cytometric analysis (reference value: 0.3%); assay type: functional
Huh-7 [9] = assay: Induction of apoptosis in human Huh-7 cells assessed as early apoptotic cells at 25 nM measured after 48 hrs by annexin V-FITC/Propidium iodide staining based flow cytometric analysis (reference value: 2.2%); assay type: functional
Huh-7 [10] = assay: Induction of morphological changes in human Huh-7 cells assessed as round cell morphology at upto 25 nM incubated for 48 hrs by bright field imaging analysis; assay type: functional, cell-based
Hep 3B2 [11] = assay: Induction of apoptosis in human Hep3B cells assessed as early apoptotic cells at 25 nM measured after 48 hrs in presence of Z-VAD-FMK by annexin V-FITC/Propidium iodide staining based flow cytometric analysis (reference value: 1.6%); assay type: functional
Huh-7 [12] = assay: Induction of apoptosis in human Huh-7 cells assessed as late apoptotic cells at 25 nM incubated for 48 hrs by Annexin V-FITC/PI staining based flow cytometry method (reference value: 3.8%); assay type: functional
Huh-7 [13] = assay: Induction of apoptosis in human Huh-7 cells assessed as increase in PARP level at 25 nM incubated for 48 hrs in presence of chloroquine by immunoblot analysis; assay type: functional, cell-based
Huh-7 [14] = assay: Induction of autophagic flux in human Huh-7 cells harbouring mCherry-egfp-LC3 assessed as increase in yellow puncta at 25 nM incubated for 15 mins by laser scanning confocal microscopic analysis; assay type: functional, cell-based
Huh-7 [15] = assay: Induction of autophagy in human Huh-7 cells assessed as downregulation of LC3II/LC3I ratio at 25 uM incubated for 48 hrs in presence of 4,6-dimorpholino-N-(4-nitrophenyl)-1,3,5-triazin-2-amine by immunoblot analysis; assay type: functional, cell-based
Hep 3B2 [16] = assay: Induction of apoptosis in human Hep3B cells assessed as late apoptotic cells at 25 nM incubated for 48 hrs by Annexin V-FITC/PI staining based flow cytometry method (reference value: 3.5%); assay type: functional
Hep 3B2 [17] = assay: Induction of apoptosis in human Hep3B cells assessed as early apoptotic cells at 25 nM incubated for 48 hrs by Annexin V-FITC/PI staining based flow cytometry method (reference value: 3.9%); assay type: functional
Hep 3B2 [18] = assay: Antitumor activity against human Hep3B cells xenografted in nude mouse model assessed as upregulation of caspase-3 expression at 5 mg/kg,ip administered every second day for 3 weeks by Western blot analysis; assay type: functional, organism-based
Huh-7 [19] = assay: Induction of apoptosis in human Huh-7 cells assessed as early apoptotic cells at 25 nM incubated for 48 hrs in presence of chloroquine by Annexin V-FITC/PI staining based flow cytometry method (reference value: 2.8%); assay type: functional
Hep 3B2 [20] = assay: Induction of autophagy in human Hep3B cells harbouring mCherry-egfp-LC3 assessed as reduction in red puncta ratio at 25 nM incubated for 15 mins in presence of 4,6-dimorpholino-N-(4-nitrophenyl)-1,3,5-triazin-2-amine by laser scanning confocal microscopic analysis; assay type: functional, cell-based
Hep 3B2 [21] = assay: Induction of apoptosis in human Hep3B cells assessed as late apoptotic cells at 25 nM incubated for 48 hrs in presence of 4,6-dimorpholino-N-(4-nitrophenyl)-1,3,5-triazin-2-amine by Annexin V-FITC/PI staining based flow cytometry method (reference value: 2.2%); assay type: functional
Hep 3B2 [22] = assay: Induction of apoptosis in human Hep3B cells assessed as necrotic cells at 15 nM incubated for 48 hrs by Annexin V-FITC/PI staining based flow cytometry method (reference value: 0.2%); assay type: functional
Huh-7 [23] = assay: Induction of morphological changes in human Huh-7 cells assessed as adherent cells at upto 25 nM incubated for 48 hrs by bright field imaging analysis; assay type: functional, cell-based
Hep 3B2 [24] = assay: Induction of autophagic flux in human Hep3B cells assessed as increase in intracellular vesicles at 25 nM incubated for 48 hrs by transmission electron microscopic analysis; assay type: functional, cell-based
Huh-7 [25] = assay: Induction of apoptosis in human Huh-7 cells assessed as increase in Bcl-2 expression at upto 25 nM incubated for 48 hrs by Western blot analysis; assay type: functional, cell-based
Huh-7 [26] = assay: Induction of apoptosis in human Huh-7 cells assessed as viable cells at 25 nM incubated for 48 hrs by Annexin V-FITC/PI staining based flow cytometry method (reference value: 91.5%); assay type: functional; conditions: read-out: Activity
Huh-7 [27] = assay: Induction of apoptosis in human Huh-7 cells assessed as necrotic cells at 15 nM incubated for 48 hrs by Annexin V-FITC/PI staining based flow cytometry method (reference value: 95.4%); assay type: functional
Hep 3B2 [28] = assay: Induction of autophagic flux in human Hep3B cells assessed as increase in LC3-II expression at upto 25 nM incubated for 48 hrs by Western blot analysis; assay type: functional, cell-based
Hep 3B2 [29] = assay: Antitumor activity against human Hep3B cells xenografted in nude mouse model assessed as upregulation of LC3 II expression at 5 mg/kg,ip administered every second day for 3 weeks by Western blot analysis; assay type: functional, organism-based
Hep 3B2 [30] = assay: Induction of autophagy in human Hep3B cells assessed as rescue of mTOR phosphorylation level at upto 25 nM incubated for 48 hrs in presence of chloroquine by immunoblot method; assay type: functional, cell-based
Huh-7 [31] = assay: Induction of apoptosis in human Huh-7 cells assessed as late apoptotic cells at 25 nM incubated for 48 hrs by Annexin V-FITC/PI staining based flow cytometry method (reference value: 2.2%); assay type: functional
Huh-7 [32] = assay: Induction of autophagic flux in human Huh-7 cells assessed as rescue of p62 at 25 uM incubated for 48 hrs in presence of chloroquine by Western blot analysis; assay type: functional, cell-based
Hep 3B2 [33] = assay: Induction of apoptosis in human Hep3B cells assessed as upregulation of caspase-3 level […] incubated for 48 hrs in presence of 4,6-dimorpholino-N-(4-nitrophenyl)-1,3,5-triazin-2-amine by immunoblot analysis; assay type: functional, cell-based

For CCN(CC)CCCC(C)Nc1ccnc2cc(Cl)ccc12 (stereo not drawn) [CHLOROQUINE], the Activity (Hep 3B2 [1]) was “Active”, the Activity (Hep 3B2 [2]) was 17.9% and the Activity (Huh-7 [3]) was 12.1%. The Activity (Huh-7 [4]) was “Active” and the Activity (Hep 3B2 [5]) was “Active”.
In the case of C[C@]12CC[C@H](O)C[C@H]1CC[C@@H]1[C@@H]2[C@H](O)C[C@]2(C)[C@@H](c3ccc(=O)oc3)CC[C@]12O [GAMABUFOTALIN], the Activity (Hep 3B2 [6]) is reported as “Active”, the Activity (Huh-7 [7]) is reported as “Active” and the Activity (Hep 3B2 [8]) is reported as 0.3%. The Activity (Huh-7 [9]) was 6.6%, the Activity (Huh-7 [10]) was “Active” and the Activity (Hep 3B2 [11]) was 4.4%. For the same molecule, the Activity (Huh-7 [12]) was 7.7%, the Activity (Huh-7 [13]) was “Active” and the Activity (Huh-7 [14]) was “Active”. The Activity (Huh-7 [15]) was “Active”, the Activity (Hep 3B2 [16]) was 13.7% and the Activity (Hep 3B2 [17]) was 9.3%. For the same molecule, the Activity (Hep 3B2 [18]) was “Active”, the Activity (Huh-7 [19]) was 12.1% and the Activity (Hep 3B2 [20]) was “Active”. The Activity (Hep 3B2 [21]) was 20.2%, the Activity (Hep 3B2 [22]) was 0.5% and the Activity (Huh-7 [23]) was “Active”. The Activity (Hep 3B2 [24]) was “Active”, the Activity (Huh-7 [25]) was “Active” and the viability at 0.025 µM (Huh-7 [26]) was 80%. For the same molecule, the Activity (Huh-7 [27]) was 67.6%, the Activity (Hep 3B2 [28]) was “Active” and the Activity (Hep 3B2 [29]) was “Active”. The Activity (Hep 3B2 [30]) was “Active”, the Activity (Huh-7 [31]) was 31.1% and the Activity (Huh-7 [32]) was “Active”. The Activity (Hep 3B2 [33]) was “Active”.
